Measurements reported in US20120245229A1, “METHOD FOR TREATING NEUROPATHIC PAIN” (priority 2009, published 2012).

Key:
[1] = system: naïve mice; test: Basal pain thresholds in naive mice; type: in vivo; details: intrathecal
Procedure: (§1) Behavioral analysis. Mice were habituated in the testing environment for two days and performed behavioral testing in a blinded manner. Formalin-evoked spontaneous inflammatory pain was assessed by measuring duration (seconds) animals spent on licking/flinching the affected paws every 5 min for 45 min. Capsaicin-induced spontaneous pain was aslo assessed for 10 min. For testing mechanical sensitivity, mice were put in boxes on an elevated metal mesh floor and stimulated hindpaw with a series of von Frey hairs with logarithmically incrementing stiffness (0.02-2.56 grams, Stoelting), presented perpendicular to the plantar surface. It was determined the 50% paw withdrawal threshold using Dixon's up-down method^40. For testing heat sensitivity, mice were placed in plastic boxes and tested heat sensitivity using Hargreaves radiant heat apparatus (IITC Life Science Inc.). The basal paw withdrawal latency was adjusted to 9-12 seconds and set a cut-off of 20 seconds to prevent tissue damage. The percent maximal possible antinociceptive effect (% M.P.E) was calculated using the equation % M.P.E.=[(PL−BL2)/(BL1−BL2)]×100. BL1, baseline latency before inflammation; BL2, baseline latency after inflammation but before drug injection; PL, latency post drug injection.

[2] = system: intrathecal TNF-α-induced hypersensitivity; test: Intrathecal TNF-α-induced heat hyperalgesia and mechanical allodynia; type: in vivo, mice
Procedure: as §1, with “The percent maximal possible antinociceptive effect (% M.P.E) was calculated using the equation % M.P.E.=[(PL−BL2)/(BL1−BL2)]×100.” left out, “injection. Intrathecal injection: […] To examine whether pretreatment of RvE1 attenuates capsaicin-induced acute spontaneous pain, RvE1 and capsaicin were mixed and injected at the same time (FIG. 3f).” for “injection.”

[3] = system: glutamate NMDA receptors (NMDARs); test: NMDA-induced currents in dorsal horn (lamina II) neurons of spinal cord slices; type: cell-based, mice; details: NMDA 50 μM; TNF-α 10 ng/ml; PD98059 1 μM, U0126 1 μM, capsazepine 10 μM
Procedure: Spinal cord slice preparation. As previously reported^39, a portion of the lumbar spinal cord (L4-L5) was removed from young mice (3-4 week old) under urethane anesthesia (1.5-2.0 g/kg, i.p.) and transverse spinal cord slices were cut (600 μm) on a vibrating microslicer. The slices were perfused with Kreb's solution (8 ml/min) for >2 h prior to experiments. Some slices were stimulated with TNF-α (10 ng/ml, 5 min), the slices were fixed with 4% paraformaldehyde for 1 h, and processed pERK immunohistochemistry using thin sections (15 μm)^13.
Patch clamp recordings in spinal slices. Whole cell patch-clamp recordings were performed in lamina II neurons in voltage clamp mode^39. After establishing the whole-cell configuration, neurons were held at the holding potentials of −70 mV for recording spontaneous excitatory postsynaptic current (sEPSC). NMDA-induced currents were recorded by bath application of NMDA (50 μM, Sigma) at the holding potential of −50 mV. Membrane currents were amplified with an Axopatch 200A amplifier (Axon Instruments) in voltage-clamp mode. pCLAMP 6 was used and Mini Analysis (Synaptosoft Inc.) software to store and analyze the data. Those cells showing >5% changes from the baseline levels were reagrded as responding ones^24.
Resolvins were also used for intraplantar injection. RvD1 or RvE1 was injected into the plantar surface of a hindapaw [20 ng, 20 μl , in 1% ethanol (Supplementary FIG. 5a, 5b) or in 10% ethanol (FIG. 2e, Supplementary FIG. 1d)]. DRG cultures were incubated with RvE1 (10 ng/ml, 0.1% ethanol in culture medium) and perfused spinal cord slices with RvE1 (1 ng/ml, in 0.01% ethanol and Kreb's solution).
Perfusion of spinal cord slices: Spinal cord slices were incubated with chemerin (100 ng/ml, in Kreb's solution), TNF-α (10 ng/ml, in Kreb's solution), capsaicin (100 nM, in 0.01% DMSO and Kreb's solution), TRPV1 antagonist capsazepine (Sigma, 10 μM, in 0.01% DMSO and Kreb's solution), pertussix toxin (0.5 μg/ml, in Kreb's solution), and MEK inhibitor PD98059 and U0126 (CalBiochem, 1 μM, in 0.01% DMSO and Kreb's solution). For pertussix toxin treatment, spinal cord slices were incubated with the toxin for 3 h before stimulation.

[4] = system: neutrophil infiltration; test: Myeloperoxidase (MPO) assay of neutrophil infiltration in the inflamed paw; type: in vivo, mice; details: intraplantar pretreatment; 4 h after CRG injection
Procedure: Myeloperoxidase assay. Paw inflammation is associated with infiltration of neutrophils (polymorphonuclear cells), and myeloperoxidase (MPO) activity is often used to quantify neutrophil activation to evaluate the magnitude of paw inflammation. To determine MPO assay, fresh skin tissues were suspended in phosphate buffer and homogenized. The suspension was centrifuged and the supernatant was assayed for MPO activity using a MPO Activity Assay Kit (Northwest Life Science Specialties, LLC). Each reaction was performed according to manufacturer's protocol. Briefly, hypochlorous acid (HOCl) is formed from MPO catalyzed reaction between chloride and hydrogen peroxide. HOCl is rapidly trapped by β-amino acid taurine to form a stable oxidant taurine chloramine. Taurine chloramine is then allowed to react with 5-thio-2-nitrobenzoic acid (TNB). TNB has a chromophore that has maximal absorbance at 412 nm while its reaction product with taurin chloramine is colorless. The color change is detected by spectrophotometry. By following the decrease of absorbance at 412 nm, MPO activity is measured. One unit is the amount of MPO that can produce 1.0 nmole of taurine chloramine at pH 6.5 and 25° C. during 30 minutes in the presence of 100 mM chloride and 100 μM of hydrogen peroxide.

[5] = system: paw incision-induced postoperative pain; test: Postoperative pain model induced by hindpaw incision; type: in vivo, mice; details: postoperative pain model induced by surgical incision
Procedure: (§2) Animals and pain models. Adult CD1 mice (male, 25-32 g) were used for most experiments. Knockout mice were used lacking TNFR1/II (Tnfrsf1a/1b^−/−) and TRPV1 (Trpv1^−/−) and C57BL/6 wild-type control mice, all from Jackson, for some experiments. All animal procedures performed in this study were approved by the Harvard Medical Area Standing Committee on Animals. 20 μl of diluted formalin (5%), carrageenan (CRG, 1%), or complete Freund's adjuvant (CFA) were injected into the plantar surface of a hindpaw to produce acute, persistent, or chronic inflammatory pain, respectively. Postoperative pain was also produced through hindpaw incision^36 and neuropathic pain by ligation of the spinal nerve^37.
Behavioral analysis. Mice were habituated in the testing environment for two days and performed behavioral testing in a blinded manner. Formalin-evoked spontaneous inflammatory pain was assessed by measuring duration (seconds) animals spent on licking/flinching the affected paws every 5 min for 45 min. Capsaicin-induced spontaneous pain was aslo assessed for 10 min. […] It was determined the 50% paw withdrawal threshold using Dixon's up-down method^40. […] The percent maximal possible antinociceptive effect (% M.P.E) was calculated using the equation % M.P.E.=[(PL−BL2)/(BL1−BL2)]×100. […]

[6] = system: inflammatory pain; test: Inflammatory pain models induced by formalin or CFA (summary statements); type: in vivo, mouse
Procedure: as §2, §1

SMILES: CC[C@@H](O)/C=C/C=C\C[C@@H](O)/C=C/C=C/C=C\[C@@H](O)CCCC(=O)O [RvE1, 5S,12R,18R-trihydroxyeicosapentaenoic acid]
- baseline sensory thresholds [1]: did not alter baseline sensory thresholds
- mechanical allodynia induced by TNF-α ([2]; intrathecal RvE1 pretreatment): attenuated
- TNF-α-induced heat hyperalgesia ([2]; spinal (intrathecal) RvE1 mixed with TNF-α 20 ng): substantially reduced
- TNF-α-induced potentiation of NMDA currents (NMDAR activation) [3]: blocked this potentiation
- neutrophil infiltration (MPO activity) [4]: reducing
- postoperative pain [5]: effectively abolish
- pain-like behaviors [6]: potently inhibit
